We go through one compound from ChEMBL document CHEMBL1141058, “Squaric monoamide monoester as a new class of reactive immunization hapten for catalytic antibodies” (Bioorg Med Chem Lett, 2005).

Test [1] concerns Monoclonal antibody (mAb) 2D4. In words: Ratio of reaction constant of paraoxon hydrolysis catalysed by monoclonal antibody 2D4 to that Michaelis-Menten's constant.
Test [2] deals with Monoclonal antibody (mAb) 3C8. Kind of test: Ratio of reaction constant of paraoxon hydrolysis catalysed by monoclonal antibody 3C8 to that Michaelis-Menten's constant.
Test [3] concerns Monoclonal antibody (mAb) 3C8. Kind of test: Michaelis-Menten constant of monoclonal antibody, 3C8 for paraoxon hydrolysis determined in 50 mM bicine with 50 mM NaCl, pH 8.0, 5% DMSO cosolvent at 23 degree C.
The subject of test [4] is Monoclonal antibody (mAb) 3C8. Kind of test: Ratio of reaction constant of paraoxon hydrolysis catalysed by monoclonal antibody 3C8 to that of uncatalysed.
Test [5] relates to Monoclonal antibody (mAb) 2D4. In words: Reaction constant of paraoxon hydrolysis catalyse by monoclonal antibody, 2D4 determined in 50 mM bicine with 50 mM NaCl, pH 8.0, 5% DMSO cosolvent at 23 degree C.
For test [6], the system named is Monoclonal antibody (mAb) 2D4. Kind of test: Michaelis-Menten's constant of monoclonal antibody, 2D4 for paraoxon hydrolysis determined in 50 mM bicine with 50 mM NaCl, pH 8.0, 5% DMSO cosolvent at 23 degree C.
Test [7] relates to Monoclonal antibody (mAb) 2D4. In words: Ratio of reaction constant of paraoxon hydrolysis catalysed by monoclonal antibody 2D4 to that of uncatalysed.
In test [8] the test system is Monoclonal antibody (mAb) 3C8. In words: Reaction constant of paraoxon hydrolysis catalyse by monoclonal antibody, 3C8 determined in 50 mM bicine with 50 mM NaCl, pH 8.0, 5% DMSO cosolvent at 23 degree C.

For orientation: Km means the substrate concentration at which the rate is half of its maximum. Regarding `CCOc1c(Nc2ccc(NC(=O)CCCC(=O)O)cc2)c(=O)c1=O`, the k cat/Km in test [1] worked out at 1.93 M⁻¹ min⁻¹; in test [2] it was 1.57 M⁻¹ min⁻¹. Also, the Km in test [3] was 1290 µM; in test [6] it was 1180 µM. The results for the k cat/Kuncat in test [4] and in test [7] were 2060 and 2310, respectively. The k cat in test [5] came to 0.00228 min⁻¹; in test [8], 0.00203 min⁻¹.
